Test results reported in patent publication US12466784B2, “Analogs of pterostilbene amino acid bearing carbonates for treating a non-alcoholic fatty liver disease and nonalcoholic steatohepatitis” (APICAL MOLECULAR BIOTECH CO., LTD., priority 2020, dated 2025).
Several values for one entry are separate records, joined by “and”; a condition that tells them apart may be missing. Equal values may be shown once.

Assays:
[1] = test system: hepatic steatosis induced by MCD diet; experiment: Histological examination (H&E stain) of liver of MCD diet mice; format: in vivo, Male C57BL/6 mice; settings: for effect on MCD diet-induced steatohepatitis (H&E staining), in words / Steatosis / Ballooning / Fibrosis / Inflammation / Scores: MCD diet mice; for effect on MCD diet-induced steatohepatitis (H&E staining), in words / Avg / Ballooning / Fibrosis / Inflammation / Sum / Scores: 100 mg/kg oral; for Avg: average of Scores of the group; for Avg / Ballooning / Fibrosis / Inflammation / Sum / Scores: PG/TPSG (1:1); for Steatosis / Ballooning / Fibrosis / Inflammation: score per animal; for Steatosis: 100 mg/kg oral once daily, 5 times a week, in PG/TPSG (1:1); for Sum: sum of Scores of the 4 animals of the group; for Scores: total score per animal
Method: (§1) Animals and experimental protocol: Male C57BL/6 mice, 4 weeks of age, were purchased from Laboratory Animal Center (Taiwan, China) were maintained under the procedures and guidelines provided by the Institutional Animal Care and Use Committee of the Health Research Institutes (Taiwan, China). They were maintained with free access to pellet food and water in stainless-steel cages at a temperature of 21±2° C. with a 12 h light/dark cycle.
(§2) Mice were randomly divided into five groups and treated as follows: (1) MCD diet+PG/TPSG (2) MCD diet+100 mg/kg all compounds. After 28 days, animals were sacrificed for the collection of blood for determination of plasma ALT and AST concentrations, and liver samples for H&E stain.
(§3) After 28 days, animals were sacrificed for the collection of blood for determination of plasma ALT and AST concentrations, and liver samples for H&E stain.

MCD diet NASH mice = experiment: Serum AST and ALT of compounds treated-NASH mice (MCD diet); format: in vivo, Male C57BL/6 mice; settings: MCD diet mice; for effect on serum concentrations of AST and ALT, in words: 100 mg/kg oral (Table 2); for Serum ALT (U/L) / Serum AST (U/L): 100 mg/kg oral, PG/TPSG (1:1)
Method: as §1, §2, §3

[2] = In vitro stability in pH 1.2 solution (USP Gastric fluid without enzymes); settings: 37° C.
Method: Sample collection: At 0, 0.17, 0.5, 1, 2, 4 and 6 h, 100 mL of aliquots were taken from the incubation mixture and placed into centrifuge tubes containing 100 μL of ice-cold acetonitrile and 1 μm internal standard where the reaction was terminated.

| Structure (SMILES) | effect on MCD diet-induced steatohepatitis (H&E staining), in words [1] | Avg [1] | Ballooning [1] | Fibrosis [1] | Sum [1] | effect on serum concentrations of AST and ALT, in words (MCD diet NASH mice) | Serum ALT (U/L) (MCD diet NASH mice) | Serum AST (U/L) (MCD diet NASH mice) | compound remaining in pH = 1.2 solution (%) ([2]; Time 0 h) | compound remaining in pH = 1.2 solution (%) ([2]; Time 0.167 h) | compound remaining in pH = 1.2 solution (%) ([2]; Time 0.5 h) | compound remaining in pH = 1.2 solution (%) ([2]; Time 1 h) | compound remaining in pH = 1.2 solution (%) ([2]; Time 2 h) | compound remaining in pH = 1.2 solution (%) ([2]; Time 4 h) | Inflammation ([1]; hydrochloride, 100 mg/kg) | Scores ([1]; hydrochloride, 100 mg/kg) | Steatosis [1] | also measured |
| --- | --- | --- | --- | --- | --- | --- | --- | --- | --- | --- | --- | --- | --- | --- | --- | --- | --- | --- |
| COc1cc(/C=C/c2ccc(OC(=O)OCCNC(=O)C(N)Cc3ncc[nH]3)cc2)cc(OC)c1.Cl.Cl (stereo not shown) [Compound 5m, (E)-2-(2-amino-3-(1H-imidazol-2-yl)propanamido)ethyl (4-(3,5-dimethoxy styryl)phenyl) carbonate dihydrochloride] | prevented MCD diet-induced steatohepatitis | 7.25 | 2 | 0 | 29 | significantly inhibited the serum concentrations of AST and ALT | 190.88 | 381.75 | 100.0 | 88.6 | 109.8 | 113.5 | 102.6 | 85.6 | – | – | – | Steatosis ([1]; dihydrochloride, 100 mg/kg): 2 (2×) and 3 (2×); Inflammation ([1]; dihydrochloride, 100 mg/kg): 3 (3×) and 2; Scores ([1]; dihydrochloride, 100 mg/kg): 7 and 8 (2×) and 6 |
| Cl.[2H]C([2H])([2H])Oc1cc(/C=C/c2ccc(OC(=O)OCCNC(=O)CN)cc2)cc(OC([2H])([2H])[2H])c1 [Compound 6a, (E)-2-(2-aminoacetamido)ethyl (4-(3,5-bis(methoxy-d3)styryl-d6)phenyl) carbonate hydrochloride] | prevented MCD diet-induced steatohepatitis | 7.00 | 2 | 0 | 28 | – | 402.63 | 555.25 | 100.0 | 106.4 | 101.2 | 119.4 | 101.5 | 104.6 | 3 (2×) and 2 (2×) | 8 and 7 (2×) and 6 | – | Steatosis ([1]; hydrochloride, 100 mg/kg): 3 (2×) and 2 (2×) |
| COc1cc(/C=C/c2ccc(OC(=O)OCCNC(=O)CN)cc2)cc(OC)c1.Cl [Compound 5a, (E)-2-(2-aminoacetamido)ethyl (4-(3,5-dimethoxystyryl)phenyl) carbonate hydrochloride] | prevented MCD diet-induced steatohepatitis | 7.75 | 2 | 0 | 31 | significantly inhibited the serum concentrations of AST and ALT | 251.75 | 283.00 | 100.0 | 104.6 | 104.0 | 110.2 | 101.7 | 103.5 | 3 (3×) and 2 | 8 (3×) and 7 | 3 | – |
| COc1cc(/C=C/c2ccc(OC(=O)OCCNC(=O)CN)cc2)cc(OC)c1.O=C(O)c1cccnc1 [Compound 5v, (E)-2-(2-aminoacetamido)ethyl (4-(3,5-dimethoxystyryl)phenyl) carbonate nicotinate] | – | 8.00 | 2 | 0 | 32 | – | 430.13 | 610.25 | 100.0 | 100.6 | 106.8 | 101.0 | 103.0 | 106.9 | – | – | 3 | Inflammation [1]: 3; Scores [1]: 8; compound remaining in pH = 1.2 solution (%) ([2]; Time 6 h): 84.8% |
| COc1cc(/C=C/c2ccc(OC(=O)OCCNC(=O)C(N)C(C)C)cc2)cc(OC)c1.O=C(O)c1cccnc1 (stereo not shown) [Compound 5w, (E)-2-(2-amino-3-methylbutanamido)ethyl (4-(3,5-dimethoxystyryl)phenyl) carbonate nicotinate] | prevented MCD diet-induced steatohepatitis | 7.50 | 2 | 0 | 30 | – | 214.50 | 236.75 | 100.0 | 128.3 | 113.4 | 123.9 | 128.5 | 122.4 | – | – | – | Steatosis ([1]; 100 mg/kg): 3 (3×) and 2; Inflammation ([1]; 100 mg/kg): 2 and 3 (3×); Scores ([1]; 100 mg/kg): 7 (2×) and 8 (2×) |
